# “Also recorded” adds a separate entry of the source.
# Columns and labels:
# BV2 microglial cells [1] = test: Phagocytic assay (uptake of IgG-FITC beads) in α-synuclein-activated BV2 microglia; format: cell-based, Murine; details: for phagocytic ability on adding galectin-3 protein: BV2 cells, 12 h
# Method: We measure microglial phagocytosis using a phagocytosis assay kit (Cayman Chem, USA) according to the protocol provided by the manufacturer's. We plated 5×10^4 cells/well in 96 well plates for 12 h before treating the cells with α-synuclein 20 μM for additional 12 h. Thereafter IgG-FITC beads we added with or without galectin-3 inhibitor for 12 h. The phagocytic ability was analyzed by a fluorescent plate reader (FluoStar Optima, BMG, LabTech, Sweden).
# To test the implication of galectin-3 on phagocytic ability of microglial cells in our model of α-synuclein induced activation, we pre-treated the cells with 100 μM of galectin-3 inhibitor for 30 min and subsequently treated them with α-synuclein aggregates or combining both for 12 h. Microglial cells activated with α-synuclein show high phagocytic activity (FIG. 4).
# BV2 microglial cells [2] = test: iNOS expression by western blot in BV2 microglia activated with α-synuclein; format: cell-based, Murine; details: for down regulation of iNOS expression: α-synuclein aggregates 20 μM; for inhibition of iNOS expression induced by α-synuclein monomers: inhibitor 30 min pre-treatment, monomers 20 μM
# Method: Murine (microglial cell line (BV2 cells)) was culture in Dulbecco's modified Eagle's medium (DMEM) containing 10% Fetal Bovine Serum (Invitrogen) with 100 U/ml Penicillin and 100 U/ml Streptomycin (Invitrogen) in 5% CO2 atmosphere at 37° C. One day before BV2 were seeded at a concentration of 2×10^5 cells/well in 24 wells plate (Nunc). The BV2 cells were treated with α-synuclein monomers and aggregates at different concentrations: 5 μM, 10 μM and 20 μM. The cells were also treated with LPS (Sigma-Aldrich) at 1 μg/ml. All the treatments were conducted for 12 h.
# We used a small inhibitory molecule for galectin-3 activity, bis-{3-deoxy-3-[4-(3-fluorophenyl)-1H-1,2,3-triazol-1-yl]-β-D-galactopyranosyl} sulfane (Mackinnon et al., 2012, Volarevic et al., 2012, Saksida et al., 2013). This inhibitor was used as pre-treatment for 30 min throughout the study, except in the phagocytic assay when we used 12 h incubation time. To test the inhibitor ability alter α-synuclein-induced inflammation, we tested different concentration, from 5 μM to 100 μM. After 30 min pre-treatment with the inhibitor, we add the treatments of α-synuclein monomers or aggregates of at different concentration for 12 h. The inhibitor is dilute in DMSO (40%) and distilled water (60%) in a stock concentration of 4 mM.
# Transfection of BV2 cells was carried out using Lipofectamine 2000 (Invitrogen) following the manufacturer's recommendation. Non-targeting control and galectin-3 siRNAs were obtained from Dharmacon. (SMART pool) siRNA sequence used: siLGal3S3(1) J-041097-09 GAGAGAUACCCAUCGCUUU (SEQ ID NO:4), siLGal3S3(2) J-041097-10 ACUUCAAGGUUGCGGUCAA (SEQ ID NO:5), siLGal3S3(3) J-041097-11 ACAGUGAAACCCAACGCAA (SEQ ID NO:6), siLGal3S3(4) J-041097-12 GGAUGAAGAACCUCCGGGA (SEQ ID NO:7).
# Western blot was performed for iNOS and galectin-3 protein levels for BV2 microglial cell or for primary microglial cells. Briefly, 5 or 10 μg of proteins of sample were loaded on 4-20% Mini-Protean TGX Precast Gels (Bio-Rad) and the transferred to Nitrocellulose membrane (Bio-Rad) using Trans-Blot Turbo System (Bio-Rad). We blocked the membrane during 1 h at room temperature with 10% Casein (Sigma-Aldrich) diluted in PBS (tablets, Sigma-Aldrich). After blocking we incubate with the primary appropriate antibody at 4° C. overnight. We clean the membranes with PBS-Tween 20 (0.1%) and then incubate during 2 h at room temperature with the appropriate peroxidase secondary antibody (Vector Labs). Each blot was developed using Clarity Western ECL Substrate (Biorad). The protein level, measured by Bradford assay (Thermo Scientific), was normalized correcting the protein level with β-Actin. The results were normalized to the highest concentration used (20 μM) in each experiment in order to normalize inflammatory response. We also used Western Blot to estimate the composition of the α-synuclein aggregates that we generated from monomeric α-synuclein.
# Next, we wanted to assess the role of galectin-3 inhibition in α-synuclein-induced activation of microglial cells. To this end, microglial cells were pretreated with the galectin-3 inhibitor at different concentrations (5, 25, 50 and 100 μM), for 30 min, then the cells were washed to remove the inhibitor to further treat them with α-synuclein monomers or aggregates (20 μM) for 12 h whereafter the iNOS protein expression levels were analyzed. […] Indeed, more than 50% down regulation of iNOS expression was found at 50 and 100 μM inhibitor treatment.
# To further test the role of galectin-3 in microglial activation, we decided to knockdown galectin-3 expression in BV2 cells using small interferring RNA (siRNA). Galectin-3 and siRNA negative control knocked-down cells were treated with α-synuclein aggregates (20 μM) for 12 h and their iNOS expression levels were compared using western blot analysis. […] Western blot analysis showing iNOS and β-actin protein levels.
# BV2 cells = test: XTT viability assay; format: cell-based, Murine; details: alone or in combination with α-synuclein aggregates; data not shown
# Method: To test if the α-synuclein, the galectin-3 inhibitor, or both, are toxic for BV2 cells in different conditions, we used an in vitro viability assay kit based on a XTT (Sigma-Aldrich) reduction spectrophotometric method to estimate the mitochondrial activity in living cells. The assay was performed following manufacturer's protocol provided in the kit. The absorbance was measured by spectrophotometrically using a plate reader.
# galectins = details: compared with N-acetyllactosamine; cited from earlier work
molecule,measurement,setting,value
"OC[C@H]1O[C@@H](S[C@@H]2O[C@H](CO)[C@H](O)[C@H](n3cc(-c4cccc(F)c4)nn3)[C@H]2O)[C@H](O)[C@@H](n2cc(-c3cccc(F)c3)nn2)[C@H]1O [TD139, Bis-{3-deoxy-3-[4-(3-fluorophenyl)-1H-1,2,3-triazol-1-yl]-β-D-galactopyranosyl} sulfane]",phagocytic ability,BV2 microglial cells [1]; 100 μM inhibitor as 30 min pre-treatment only,couldn't find any difference
same,phagocytic ability,BV2 microglial cells [1]; 100 μM inhibitor combined with α-synuclein aggregates 20 μM for 12 h,reduced phagocytic ability; also recorded: robustly inhibited the phagocytosis
same,phagocytic ability,"BV2 microglial cells [1]; 100 μM inhibitor combined with α-synuclein aggregates 20 μM for 12 h, listed as galectin-3 inhibitor",robustly reduced to control levels
same,down regulation of iNOS expression,"BV2 microglial cells [2]; 50 μM inhibitor, 30 min pre-treatment, 12 h",more than 50%
same,down regulation of iNOS expression,"BV2 microglial cells [2]; 100 μM inhibitor, 30 min pre-treatment, 12 h",more than 50%
same,inhibition of iNOS expression induced by α-synuclein aggregates,"BV2 microglial cells [2]; inhibitor 5, 25, 50 and 100 μM, 30 min pre-treatment, aggregates 20 μM, 12 h",significantly inhibited
same,inhibition of iNOS expression induced by α-synuclein monomers,BV2 microglial cells [2]; 12 h,not significantly inhibited
same,inhibition of iNOS expression induced by α-synuclein monomers,"BV2 microglial cells [2]; 12 h, listed as galectin-3 inhibitor",not to monomers
same,inflammatory response induced by α-synuclein,"BV2 microglial cells [2]; summary statement, BV2 microglia",significant reduction
same,cell viability,BV2 cells,does not negatively affect cell viability
OC[C@H]1O[C@@H](S[C@@H]2O[C@H](CO)[C@H](O)[C@H](O)[C@H]2O)[C@H](O)[C@@H](O)[C@H]1O [thiodigalactoside],efficiency as galectin inhibitor,galectins,approximately as efficient as N-acetyllactosamine
galectin-3 protein: galectin-3 protein added to microglial cells in the phagocytic assay,phagocytic ability on adding galectin-3 protein,BV2 microglial cells [1],increases the phagocytic ability to a similar extent as α-synuclein aggregates
same,phagocytic ability on adding galectin-3 protein,BV2 microglial cells [1]; listed as galectin-3,recover the phagocytic ability
